Results published in ChEMBL document CHEMBL6092156, “Design and development of a series of 4-(piperazin-1-yl)pyrimidines as irreversible menin inhibitors” (Eur J Med Chem, 2024).

How the values were obtained:
[1] = tested on: MV4-11; experiment: Antiproliferative activity against human menin-sensitive MV4-11 cells assessed as inhibition of cell growth incubated for 7 days by MTS assay; type: functional, cell-based; details: MV4-11, 168 h
[2] = tested on: REH; experiment: Antiproliferative activity against human menin-insensitive REH cells assessed as inhibition of cell growth incubated for 7 days by MTS assay; type: functional, cell-based; details: 168 h
[3] = target: Menin/Histone-lysine N-methyltransferase MLL (Homo sapiens, UniProt O00255); experiment: Inhibition of menin (unknown origin)/N-terminal FITC-labeled MLL1 peptide (unknown origin) interaction incubated for 30 min by fluorescence polarization assay; type: protein assay
[4] = Suppression of MEN1 gene transcription in human MV4-11 cells assessed as protein synthesis by measuring fold change at 20 nM incubated for 16 hrs relative to control; type: functional
[5] = Suppression of MEN1 gene transcription in human MV4-11 cells assessed as protein synthesis by measuring fold change at 50 ug/ml incubated for 12 hrs relative to control; type: functional; details: dose 50 µg/ml
[6] = Suppression of MEN1 gene transcription in human MV4-11 cells assessed as protein synthesis by measuring fold change at 50 ug/ml incubated for 48 hrs relative to control; type: functional; details: dose 50 µg/ml
[7] = Suppression of MEN1 gene transcription in human MV4-11 cells assessed as protein synthesis by measuring fold change at 50 ug/ml incubated for 24 hrs relative to control; type: functional; details: dose 50 µg/ml
[8] = Suppression of MEN1 gene transcription in human MV4-11 cells assessed as protein synthesis by measuring fold change at 50 ug/ml incubated for 36 hrs relative to control; type: functional; details: dose 50 µg/ml
[9] = tested on: MV4-11; experiment: Antiproliferative activity against human MV4-11 cells assessed as cell growth inhibition after 4 days; type: functional, cell-based; details: MV4-11, 96 h
[10] = Cytotoxicity against human PBMC cells assessed as cell viability incubated for 7 days by MTS assay; type: toxicity, cell-based

Sequence of Menin/Histone-lysine N-methyltransferase MLL (O00255 whole entry): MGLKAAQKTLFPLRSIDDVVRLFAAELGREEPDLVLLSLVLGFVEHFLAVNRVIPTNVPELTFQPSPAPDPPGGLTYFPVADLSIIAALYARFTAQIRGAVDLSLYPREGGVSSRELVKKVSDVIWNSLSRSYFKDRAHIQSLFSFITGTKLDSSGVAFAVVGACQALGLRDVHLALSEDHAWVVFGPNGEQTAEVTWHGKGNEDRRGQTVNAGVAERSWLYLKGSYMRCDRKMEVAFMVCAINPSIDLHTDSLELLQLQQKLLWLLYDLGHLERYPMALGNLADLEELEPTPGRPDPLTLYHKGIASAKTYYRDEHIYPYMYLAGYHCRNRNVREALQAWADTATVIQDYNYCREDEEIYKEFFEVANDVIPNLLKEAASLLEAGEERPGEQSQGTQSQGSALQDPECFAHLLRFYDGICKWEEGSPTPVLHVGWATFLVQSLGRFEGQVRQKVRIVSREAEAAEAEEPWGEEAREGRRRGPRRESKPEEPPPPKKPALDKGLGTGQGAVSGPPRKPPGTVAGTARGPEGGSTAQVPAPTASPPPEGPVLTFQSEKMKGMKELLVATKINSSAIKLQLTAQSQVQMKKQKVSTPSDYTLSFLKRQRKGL
Sequence of Menin/Histone-lysine N-methyltransferase MLL (Q03164 1-2718 partner limits assumed): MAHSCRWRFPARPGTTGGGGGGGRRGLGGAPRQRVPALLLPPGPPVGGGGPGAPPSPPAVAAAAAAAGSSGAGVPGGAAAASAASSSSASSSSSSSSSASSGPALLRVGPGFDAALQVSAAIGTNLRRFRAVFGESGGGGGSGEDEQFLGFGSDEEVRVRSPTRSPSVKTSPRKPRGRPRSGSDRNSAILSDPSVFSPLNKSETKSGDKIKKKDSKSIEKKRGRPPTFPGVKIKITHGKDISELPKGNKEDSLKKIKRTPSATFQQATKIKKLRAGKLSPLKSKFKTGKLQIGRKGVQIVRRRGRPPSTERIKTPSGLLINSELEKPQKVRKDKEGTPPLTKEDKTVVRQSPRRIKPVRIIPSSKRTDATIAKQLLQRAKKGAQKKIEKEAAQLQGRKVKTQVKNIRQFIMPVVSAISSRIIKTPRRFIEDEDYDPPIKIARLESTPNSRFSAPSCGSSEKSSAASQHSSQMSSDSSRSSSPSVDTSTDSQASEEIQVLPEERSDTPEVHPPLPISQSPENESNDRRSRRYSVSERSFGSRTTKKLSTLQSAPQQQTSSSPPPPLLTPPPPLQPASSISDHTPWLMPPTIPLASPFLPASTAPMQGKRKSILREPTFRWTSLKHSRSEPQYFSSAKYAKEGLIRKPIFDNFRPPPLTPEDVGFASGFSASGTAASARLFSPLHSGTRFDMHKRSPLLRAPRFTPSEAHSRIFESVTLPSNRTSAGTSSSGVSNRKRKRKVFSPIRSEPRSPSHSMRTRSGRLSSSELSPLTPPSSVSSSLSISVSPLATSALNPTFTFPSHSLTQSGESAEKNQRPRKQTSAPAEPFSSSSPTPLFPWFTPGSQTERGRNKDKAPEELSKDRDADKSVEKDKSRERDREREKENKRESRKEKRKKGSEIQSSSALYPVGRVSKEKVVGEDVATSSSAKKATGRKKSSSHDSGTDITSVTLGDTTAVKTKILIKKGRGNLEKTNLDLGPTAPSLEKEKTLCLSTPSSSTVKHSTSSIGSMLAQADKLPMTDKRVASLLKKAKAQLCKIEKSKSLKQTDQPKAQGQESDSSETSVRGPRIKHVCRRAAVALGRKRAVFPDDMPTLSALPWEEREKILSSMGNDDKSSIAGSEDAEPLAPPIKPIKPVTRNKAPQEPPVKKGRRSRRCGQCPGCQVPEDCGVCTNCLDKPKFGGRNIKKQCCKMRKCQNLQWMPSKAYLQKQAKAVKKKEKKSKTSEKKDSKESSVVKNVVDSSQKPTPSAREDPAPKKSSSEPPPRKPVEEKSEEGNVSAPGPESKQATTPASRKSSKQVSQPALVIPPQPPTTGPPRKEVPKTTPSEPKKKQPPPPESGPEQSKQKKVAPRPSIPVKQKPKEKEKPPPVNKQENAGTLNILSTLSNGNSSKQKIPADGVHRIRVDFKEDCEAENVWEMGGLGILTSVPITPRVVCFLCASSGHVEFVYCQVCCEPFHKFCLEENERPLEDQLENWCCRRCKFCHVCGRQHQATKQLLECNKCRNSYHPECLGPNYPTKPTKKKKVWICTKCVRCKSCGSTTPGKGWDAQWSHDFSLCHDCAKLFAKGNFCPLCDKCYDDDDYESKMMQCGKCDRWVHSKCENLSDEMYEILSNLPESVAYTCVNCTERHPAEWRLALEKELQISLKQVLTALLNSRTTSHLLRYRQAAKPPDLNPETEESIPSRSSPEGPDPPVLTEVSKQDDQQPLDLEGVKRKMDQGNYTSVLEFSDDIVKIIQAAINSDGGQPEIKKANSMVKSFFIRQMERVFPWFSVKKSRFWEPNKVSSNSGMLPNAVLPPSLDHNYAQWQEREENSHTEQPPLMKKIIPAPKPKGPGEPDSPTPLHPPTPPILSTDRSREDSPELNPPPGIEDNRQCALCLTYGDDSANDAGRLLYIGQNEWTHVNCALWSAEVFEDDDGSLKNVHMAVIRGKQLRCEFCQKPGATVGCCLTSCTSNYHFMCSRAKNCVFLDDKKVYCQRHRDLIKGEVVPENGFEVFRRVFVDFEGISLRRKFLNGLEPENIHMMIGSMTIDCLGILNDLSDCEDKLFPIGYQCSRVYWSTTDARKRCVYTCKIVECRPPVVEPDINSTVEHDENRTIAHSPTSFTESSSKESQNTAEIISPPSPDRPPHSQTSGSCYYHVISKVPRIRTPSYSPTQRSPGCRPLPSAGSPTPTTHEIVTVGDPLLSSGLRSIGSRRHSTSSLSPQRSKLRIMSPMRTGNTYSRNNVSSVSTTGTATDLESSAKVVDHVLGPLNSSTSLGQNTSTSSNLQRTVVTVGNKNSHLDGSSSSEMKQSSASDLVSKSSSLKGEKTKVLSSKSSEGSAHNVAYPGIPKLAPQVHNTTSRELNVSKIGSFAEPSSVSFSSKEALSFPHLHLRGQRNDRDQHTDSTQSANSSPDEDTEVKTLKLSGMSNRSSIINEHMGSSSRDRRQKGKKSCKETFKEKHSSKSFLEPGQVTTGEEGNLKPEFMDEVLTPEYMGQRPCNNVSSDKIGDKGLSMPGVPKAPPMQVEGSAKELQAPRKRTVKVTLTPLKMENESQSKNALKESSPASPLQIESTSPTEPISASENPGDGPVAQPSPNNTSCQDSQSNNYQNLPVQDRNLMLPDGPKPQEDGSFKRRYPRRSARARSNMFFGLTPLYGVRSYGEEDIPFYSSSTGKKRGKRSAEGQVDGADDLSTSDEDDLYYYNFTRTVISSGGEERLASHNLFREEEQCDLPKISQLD
Sequence of Menin/Histone-lysine N-methyltransferase MLL (Q03164 2719-3969 partner limits assumed): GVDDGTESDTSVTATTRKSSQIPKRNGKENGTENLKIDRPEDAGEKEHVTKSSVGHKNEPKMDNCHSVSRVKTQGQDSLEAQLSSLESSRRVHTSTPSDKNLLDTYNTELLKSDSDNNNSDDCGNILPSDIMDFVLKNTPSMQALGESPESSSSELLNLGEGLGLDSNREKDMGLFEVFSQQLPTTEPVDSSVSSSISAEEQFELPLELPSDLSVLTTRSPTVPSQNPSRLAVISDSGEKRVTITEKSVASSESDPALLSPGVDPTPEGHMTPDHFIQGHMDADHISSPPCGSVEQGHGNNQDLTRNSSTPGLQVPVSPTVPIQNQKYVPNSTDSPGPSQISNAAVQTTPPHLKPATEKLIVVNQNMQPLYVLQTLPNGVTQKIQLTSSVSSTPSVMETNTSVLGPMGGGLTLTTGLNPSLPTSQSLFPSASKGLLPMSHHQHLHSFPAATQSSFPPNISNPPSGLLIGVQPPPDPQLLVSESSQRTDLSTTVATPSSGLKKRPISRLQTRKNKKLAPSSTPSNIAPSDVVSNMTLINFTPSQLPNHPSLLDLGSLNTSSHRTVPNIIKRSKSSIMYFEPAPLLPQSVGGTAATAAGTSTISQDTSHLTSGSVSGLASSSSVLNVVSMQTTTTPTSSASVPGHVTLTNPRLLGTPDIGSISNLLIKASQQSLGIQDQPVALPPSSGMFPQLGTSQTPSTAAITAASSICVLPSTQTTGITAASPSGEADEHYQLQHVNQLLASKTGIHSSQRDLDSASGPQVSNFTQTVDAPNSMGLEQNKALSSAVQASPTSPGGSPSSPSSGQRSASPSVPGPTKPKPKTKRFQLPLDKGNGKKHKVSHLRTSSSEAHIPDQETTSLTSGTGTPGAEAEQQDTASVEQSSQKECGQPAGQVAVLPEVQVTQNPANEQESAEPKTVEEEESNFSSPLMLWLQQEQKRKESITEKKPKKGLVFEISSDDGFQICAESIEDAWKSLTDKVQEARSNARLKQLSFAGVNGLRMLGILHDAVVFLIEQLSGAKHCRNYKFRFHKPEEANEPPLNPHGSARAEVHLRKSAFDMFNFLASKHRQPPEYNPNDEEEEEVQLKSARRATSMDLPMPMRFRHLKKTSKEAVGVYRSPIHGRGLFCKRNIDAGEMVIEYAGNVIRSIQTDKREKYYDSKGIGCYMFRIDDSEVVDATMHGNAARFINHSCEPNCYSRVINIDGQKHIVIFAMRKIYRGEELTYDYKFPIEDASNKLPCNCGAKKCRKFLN

SMILES | IC50 [1] | IC50 [3] | IC50 [2] | further results
C=CC(=O)N1CC(S(=O)(=O)c2ccc(N3CC(CN4CCN(c5ncncc5Nc5ccc(F)cc5C(=O)N(C(C)C)C(C)C)CC4)C3)cc2)C1 | 220 nM | 33.9 nM | 4810 nM | –
CC(C)C[C@H](NC(=O)[C@H](CCc1ccccc1)NC(=O)CN1CCOCC1)C(=O)N[C@@H](Cc1ccccc1)C(=O)N[C@@H](CC(C)C)C(=O)[C@@]1(C)CO1 [CARFILZOMIB] | – | – | – | fold change (FC) [4]: 1.16
C=CC(=O)Nc1cccc(N2CC(CN3CCN(c4ncncc4Nc4ccc(F)cc4C(=O)N(C(C)C)C(C)C)CC3)C2)c1 | 1330 nM | 97.3 nM | 4420 nM | –
CCC(=O)Nc1ccc(N2CC(CN3CCN(c4ncncc4Nc4ccc(F)cc4C(=O)N(C(C)C)C(C)C)CC3)C2)cc1 | 770 nM | 48.3 nM | 8260 nM | –
C=CC(=O)Nc1ccc(N2CC(CN3CCN(c4ncncc4Nc4ccc(F)cc4C(=O)N(C(C)C)C(C)C)CC3)C2)cc1 | 530 nM | 34 nM | 4280 nM | –
CCN(C(=O)c1cc(F)ccc1Nc1cncnc1N1CCN(C(C)C2CN(c3ccc(S(=O)(=O)C4CN(C(=O)/C=C/CN(C)C)C4)cc3)C2)CC1)C(C)C (stereo not given) | 140 nM | 18.4 nM | 7900 nM | –
CCC(=O)Nc1cccc(N2CC(CN3CCN(c4ncncc4Nc4ccc(F)cc4C(=O)N(C(C)C)C(C)C)CC3)C2)c1 | 1510 nM | 95.6 nM | > 20000 nM | –
CCN(C(=O)c1cc(F)ccc1Nc1cncnc1N1CCN(CC2CN(c3ccc([N+](=O)[O-])cc3)C2)CC1)C(C)C | – | 50.2 nM | – | –
CCN(C(=O)c1cc(F)ccc1Oc1cncnc1N1CCN(CC2CN(c3ccc(S(=O)(=O)C4CN(C(=O)/C=C/CN(C)C)C4)cc3)C2)CC1)C(C)C | 40 nM | 14.5 nM | 11400 nM | –
C[C@@H]1C[C@@H]([C@H](O)CC2CC(=O)NC(=O)C2)C(=O)[C@@H](C)C1 [CYCLOHEXIMIDE] | – | – | – | fold change (FC) [5]: 0.55; fold change (FC) [6]: 0.007; fold change (FC) [7]: 0.41; fold change (FC) [8]: 0.007
CCN(C(=O)c1cc(F)ccc1Nc1cncnc1N1CCN(C(=O)C2CN(c3ccc(S(=O)(=O)C4CN(C(=O)/C=C/CN(C)C)C4)cc3)C2)CC1)C(C)C | 50 nM | 12.9 nM | > 20000 nM | –
CCN(C(=O)c1cc(F)ccc1Nc1cncnc1N1C[C@@H](C)N(CC2CN(c3ccc(S(=O)(=O)C4CN(C(=O)/C=C/CN(C)C)C4)cc3)C2)C[C@@H]1C)C(C)C | 120 nM | 22.3 nM | 18000 nM | –
CCN(C(=O)c1cc(F)ccc1Nc1cncnc1N1CCN(CC2CN(c3ccc(C(F)(F)F)cc3)C2)CC1)C(C)C | – | 186 nM | – | –
CCN(C(=O)c1cc(F)ccc1Nc1cncnc1N1CCN(CC2CN(c3ccc(NC(=O)/C=C/CN(C)C)cc3)C2)CC1)C(C)C | 1100 nM | 61.9 nM | > 20000 nM | –
COC(=O)N[C@H]1CCC[C@@H]1[C@](C#N)(c1cccc(F)c1)C1CCN(CC2CN(c3ccc(S(=O)(=O)C4CN(C(=O)/C=C/CN(C)C)C4)cc3)C2)CC1 | – | – | – | IC50 [9]: 2.7 nM
CCN(C(=O)c1cc(F)ccc1Nc1cncnc1N1CCN(CC2CN(c3ccc(C#N)cc3)C2)CC1)C(C)C | – | 38.8 nM | – | –
CCN(C(=O)c1cc(F)ccc1Oc1cncnc1N1CC2(CCN(C[C@H]3CC[C@H](NS(=O)(=O)CC)CC3)CC2)C1)C(C)C [REVUMENIB] | – | 15.5 nM | – | IC50 at 7 days [10]: > 3000 nM

Further lines, with some results ahead:

IC50 [1] | IC50 [3] | SMILES | IC50 [2] | further results
614 nM | 11.3 nM | CCN(C(=O)c1cc(F)ccc1Nc1cncnc1N1CCN(CC2CN(c3ccc(S(=O)(=O)N4CC[C@@H](NC(=O)/C=C/CN(C)C)C4)cc3)C2)CC1)C(C)C | > 20000 nM | –
– | 66.5 nM | CCN(C(=O)c1cc(F)ccc1Nc1cncnc1N1CCN(CC2CN(c3ccc(S(C)(=O)=O)cc3)C2)CC1)C(C)C | – | –
210 nM | 32.8 nM | CCC(=O)N1CC(S(=O)(=O)c2ccc(N3CC(CN4CCN(c5ncncc5Nc5ccc(F)cc5C(=O)N(C(C)C)C(C)C)CC4)C3)cc2)C1 | > 20000 nM | –
32 nM | 16.3 nM | CCN(C(=O)c1cc(F)ccc1Nc1cncnc1N1CCN(CC2CN(c3ccc(S(=O)(=O)C4CN(C(=O)/C=C/CN5CCCC5)C4)cc3)C2)CC1)C(C)C | 6980 nM | –
30 nM | 14.2 nM | CCN(C(=O)c1cc(F)ccc1Nc1cncnc1N1CCN(CC2CN(c3ccc(S(=O)(=O)C4CN(C(=O)/C=C/CN(C)C)C4)cc3)C2)CC1)C(C)C | 1930 nM | –
30 nM | 16.6 nM | CCN(C(=O)c1cc(F)ccc1Nc1cncnc1N1CCN(CC2CN(c3ccc(S(=O)(=O)C4CN(C(=O)/C=C/CN5CCCCC5)C4)cc3)C2)CC1)C(C)C | 7880 nM | –
283 nM | 22.9 nM | C=CC(=O)NC1CN(S(=O)(=O)c2ccc(N3CC(CN4CCN(c5ncncc5Nc5ccc(F)cc5C(=O)N(CC)C(C)C)CC4)C3)cc2)C1 | > 20000 nM | –
644 nM | 16.7 nM | CCN(C(=O)c1cc(F)ccc1Nc1cncnc1N1CCN(CC2CN(c3ccc(S(=O)(=O)N4CC[C@H](NC(=O)/C=C/CN(C)C)C4)cc3)C2)CC1)C(C)C | > 20000 nM | –
1470 nM | 52.2 nM | CCC(=O)N[C@@H]1CCN(S(=O)(=O)c2ccc(N3CC(CN4CCN(c5ncncc5Nc5ccc(F)cc5C(=O)N(CC)C(C)C)CC4)C3)cc2)C1 | > 20000 nM | –
– | 49.7 nM | CCC(=O)c1ccc(N2CC(CN3CCN(c4ncncc4Nc4ccc(F)cc4C(=O)N(CC)C(C)C)CC3)C2)cc1 | – | –
281 nM | 12.3 nM | CCN(C(=O)c1cc(F)ccc1Nc1cncnc1N1CCN(CC2CN(c3ccc(S(=O)(=O)N4CC(NC(=O)/C=C/CN(C)C)C4)cc3)C2)CC1)C(C)C | > 20000 nM | –
607 nM | 51.4 nM | C=CC(=O)N[C@H]1CCN(S(=O)(=O)c2ccc(N3CC(CN4CCN(c5ncncc5Nc5ccc(F)cc5C(=O)N(CC)C(C)C)CC4)C3)cc2)C1 | > 20000 nM | –
875 nM | 34.2 nM | CCC(=O)NC1CN(S(=O)(=O)c2ccc(N3CC(CN4CCN(c5ncncc5Nc5ccc(F)cc5C(=O)N(CC)C(C)C)CC4)C3)cc2)C1 | > 20000 nM | –
– | 27.3 nM | CCN(C(=O)c1cc(F)ccc1Nc1cncnc1N1CCN(CC2CN(c3ccc(NS(C)(=O)=O)cc3)C2)CC1)C(C)C | – | –
1260 nM | 31.8 nM | C=CC(=O)N[C@@H]1CCN(S(=O)(=O)c2ccc(N3CC(CN4CCN(c5ncncc5Nc5ccc(F)cc5C(=O)N(CC)C(C)C)CC4)C3)cc2)C1 | > 20000 nM | –
2240 nM | 61.3 nM | CCC(=O)N[C@H]1CCN(S(=O)(=O)c2ccc(N3CC(CN4CCN(c5ncncc5Nc5ccc(F)cc5C(=O)N(CC)C(C)C)CC4)C3)cc2)C1 | > 20000 nM | –
– | 276 nM | CCN(C(=O)c1cc(F)ccc1Nc1cncnc1N1CCN(CC2CN(c3ccc(F)cc3)C2)CC1)C(C)C | – | –
– | 21.6 nM | CCN(C(=O)c1cc(F)ccc1Nc1cncnc1N1CCN(CC2CN(c3ccc(S(N)(=O)=O)cc3)C2)CC1)C(C)C | – | –
